Results reported in ChEMBL document CHEMBL1201862, “PubChem BioAssay data set” (2004).
Active and inactive are the calls of the source.

Tests used:
[1] = molecular target: T1, DNA dC->dU-editing enzyme APOBEC-3A (Homo sapiens, UniProt P31941); assay: SAR analysis of small molecule inhibitors of APOBEC3A DNA Deaminase via a fluorescence-based single-stranded DNA deaminase assay - Set 2.; type: functional; conditions: read-out: IC50_Mean
[2] = molecular target: T2, DNA dC->dU-editing enzyme APOBEC-3G (Homo sapiens, UniProt Q9HC16); type: functional
[3] = molecular target: T1, DNA dC->dU-editing enzyme APOBEC-3A; assay: Dose Response confirmation of small molecule APOBEC3A DNA Deaminase Inhibitors via a fluorescence-based single-stranded DNA deaminase assay. [Related pubchem assays (depositor defined):AID493011, AID493024]; type: functional
[4] = molecular target: T2, DNA dC->dU-editing enzyme APOBEC-3G; assay: APOBEC3G deaminase inhibitors, SAR follow-up, biochemical, fluorescence, single-stranded DNA substrate (AID 602136); type: functional; conditions: read-out: IC50_Mean
[5] = molecular target: T2, DNA dC->dU-editing enzyme APOBEC-3G; assay: SAR analysis of small molecule inhibitors of APOBEC3G DNA Deaminase via a fluorescence-based single-stranded DNA deaminase assay - Set 2.; type: functional; conditions: read-out: IC50_Mean
[6] = molecular target: T1, DNA dC->dU-editing enzyme APOBEC-3A; assay: SAR analysis of small molecule inhibitors of APOBEC3A DNA Deaminase via a fluorescence-based single-stranded DNA deaminase assay.; type: functional; conditions: read-out: IC50_Mean
[7] = molecular target: ADP-ribosylation factor GTPase-activating protein 1 (Rattus norvegicus, UniProt Q62848); assay: Fluorescence polarization-based biochemical high throughput dose response screening assay to identify inhibitors of ADP-ribosylation factor GTPase activating protein 1 (ARFGAP1).; type: functional
[8] = test system: H9c2; assay: cells; type: functional, cell-based; conditions: Rattus norvegicus, H9c2, Myocardium;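 also: confirmatory concentration-response retest of ultra-high-throughput screening hits for modulation of myocardial damage; cell death induced by hydrogen peroxide oxidative stress; compound pretreatment for 60 min then peroxide exposure for 2 h; potency is for protecting the cells against peroxide damage rather than for killing them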
[9] = AlphaScreen signal interference compounds, dose response, artefact control for ARNT-TACC3 interaction inhibitor project, biochemical, luminescence, cherry-pick (AID 651705); type: functional;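 also: AlphaScreen bead proximity signal that flags compounds interfering with the detection technology; potency reflects signal decrease which marks the compound as an assay artifact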
[10] = MDA-MB-231 cell growth inhibition, dose response, cytotoxicity control for RAD54 inhibitor project, CellTiter-Glo luminescence, cherry-pick (AID 651692); type: functional, cell-based
[11] = molecular target: Neurotensin receptor type 1 (Homo sapiens, UniProt P30989); type: functional;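 also: Image-based confirmatory dose-response assay measuring agonist activity at NTR1; NTR1-expressing U2OS osteosarcoma cells imaged for beta-arrestin GFP spot formation; agonist potency where compounds increase beta-arrestin recruitment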
[12] = molecular target: DNA repair and recombination protein RAD54-like (Homo sapiens, UniProt Q92698); assay: inhibitors of human RAD54 branch migration, confirmation, biochemical, fluorescence, cherry-picked samples, dose series (AID 651657); type: functional
[13] = molecular target: DNA (cytosine-5)-methyltransferase 1 (Homo sapiens, UniProt P26358); assay: DNMT1 methyltransferase inhibitors, confirmation, biochemical, fluorescent molecular beacon (AID 602386); type: functional
[14] = molecular target: T3, Small ubiquitin-related modifier 1 (Homo sapiens, UniProt P63165); assay: inhibitors of SUMO1 peptide binding, dose response, biochemical, fluorescence polarization, uHTS hits (AID 624382); type: functional; conditions: read-out: IC50_Mean
[15] = molecular target: T4, Hexokinase HKDC1 (Homo sapiens, UniProt Q2TB90); assay: HKDC1 hexokinase inhibitors, dose response, biochemical, W721R variant (AID 504729); type: functional
T4 sequence (Q2TB90 whole entry): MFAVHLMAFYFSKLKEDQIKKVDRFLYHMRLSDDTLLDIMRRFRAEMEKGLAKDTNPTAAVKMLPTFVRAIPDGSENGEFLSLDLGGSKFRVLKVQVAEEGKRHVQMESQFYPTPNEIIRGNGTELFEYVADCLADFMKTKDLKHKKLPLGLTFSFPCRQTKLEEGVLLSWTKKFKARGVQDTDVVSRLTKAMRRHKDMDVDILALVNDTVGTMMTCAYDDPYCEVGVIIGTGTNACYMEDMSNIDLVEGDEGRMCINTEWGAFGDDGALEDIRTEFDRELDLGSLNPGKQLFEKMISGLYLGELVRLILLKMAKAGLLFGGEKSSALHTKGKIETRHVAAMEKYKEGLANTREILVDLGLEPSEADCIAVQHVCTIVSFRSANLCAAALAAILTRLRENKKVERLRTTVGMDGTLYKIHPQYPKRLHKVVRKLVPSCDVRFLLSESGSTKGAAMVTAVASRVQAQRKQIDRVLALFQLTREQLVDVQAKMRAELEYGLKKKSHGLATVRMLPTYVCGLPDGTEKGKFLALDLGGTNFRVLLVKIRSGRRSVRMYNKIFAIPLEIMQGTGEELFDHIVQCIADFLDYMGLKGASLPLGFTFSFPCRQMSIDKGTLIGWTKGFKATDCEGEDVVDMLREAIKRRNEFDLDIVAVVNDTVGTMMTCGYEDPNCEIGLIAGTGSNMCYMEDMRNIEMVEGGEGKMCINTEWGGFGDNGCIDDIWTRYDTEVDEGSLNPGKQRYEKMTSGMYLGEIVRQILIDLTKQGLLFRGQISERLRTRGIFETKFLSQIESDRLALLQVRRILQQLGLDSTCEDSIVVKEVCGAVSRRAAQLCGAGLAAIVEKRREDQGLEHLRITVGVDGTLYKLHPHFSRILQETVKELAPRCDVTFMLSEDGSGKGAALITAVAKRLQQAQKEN

[16] = molecular target: T3, Small ubiquitin-related modifier 1; assay: inhibitors of SUMO1 partner interactions, dose response, biochemical, FRET (AID 624383); type: functional; conditions: read-out: IC50_Mean
[17] = ARNT/TACC3 interaction disruptors, potency, confirmation, biochemical, AlphaScreen, cherry-picked samples (AID 651703); type: functional, Homo sapiens;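 also: His-tagged ARNT PAS-B domain paired with GST-TACC3 E629A dimer coactivator fragment; potency of inhibitors that break up the complex and lower AlphaScreen signal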
[18] = molecular target: Nuclear receptor subfamily 5 group A member 2 (Homo sapiens, UniProt O00482); type: functional, cell-based;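 also: HEK293T cells transfected with LRH-1 and a StAR promoter luciferase reporter; potency for inhibitors that lower LRH-1 driven reporter light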
[19] = StAR promoter reporter inhibition counter-screen, dose response, counter-screen for LRH-1 inverse agonist project, cell-based, luminescence, luciferase reporter (AID 651969); type: functional
[20] = molecular target: Steroidogenic factor 1 (Homo sapiens, UniProt Q13285); assay: Counterscreen for inverse agonists of the liver receptor homolog-1 (LRH-1; NR5A2): Luminescence-based cell-based high throughput dose response assay to identify inverse agonists of the Steroidogenic Factor 1 Nuclear Receptor (SF1; NR5A1).; type: functional
[21] = molecular target: T5, Histone-lysine N-methyltransferase NSD2 (Homo sapiens, UniProt O96028); type: biochemical
T5 sequence (O96028 whole entry): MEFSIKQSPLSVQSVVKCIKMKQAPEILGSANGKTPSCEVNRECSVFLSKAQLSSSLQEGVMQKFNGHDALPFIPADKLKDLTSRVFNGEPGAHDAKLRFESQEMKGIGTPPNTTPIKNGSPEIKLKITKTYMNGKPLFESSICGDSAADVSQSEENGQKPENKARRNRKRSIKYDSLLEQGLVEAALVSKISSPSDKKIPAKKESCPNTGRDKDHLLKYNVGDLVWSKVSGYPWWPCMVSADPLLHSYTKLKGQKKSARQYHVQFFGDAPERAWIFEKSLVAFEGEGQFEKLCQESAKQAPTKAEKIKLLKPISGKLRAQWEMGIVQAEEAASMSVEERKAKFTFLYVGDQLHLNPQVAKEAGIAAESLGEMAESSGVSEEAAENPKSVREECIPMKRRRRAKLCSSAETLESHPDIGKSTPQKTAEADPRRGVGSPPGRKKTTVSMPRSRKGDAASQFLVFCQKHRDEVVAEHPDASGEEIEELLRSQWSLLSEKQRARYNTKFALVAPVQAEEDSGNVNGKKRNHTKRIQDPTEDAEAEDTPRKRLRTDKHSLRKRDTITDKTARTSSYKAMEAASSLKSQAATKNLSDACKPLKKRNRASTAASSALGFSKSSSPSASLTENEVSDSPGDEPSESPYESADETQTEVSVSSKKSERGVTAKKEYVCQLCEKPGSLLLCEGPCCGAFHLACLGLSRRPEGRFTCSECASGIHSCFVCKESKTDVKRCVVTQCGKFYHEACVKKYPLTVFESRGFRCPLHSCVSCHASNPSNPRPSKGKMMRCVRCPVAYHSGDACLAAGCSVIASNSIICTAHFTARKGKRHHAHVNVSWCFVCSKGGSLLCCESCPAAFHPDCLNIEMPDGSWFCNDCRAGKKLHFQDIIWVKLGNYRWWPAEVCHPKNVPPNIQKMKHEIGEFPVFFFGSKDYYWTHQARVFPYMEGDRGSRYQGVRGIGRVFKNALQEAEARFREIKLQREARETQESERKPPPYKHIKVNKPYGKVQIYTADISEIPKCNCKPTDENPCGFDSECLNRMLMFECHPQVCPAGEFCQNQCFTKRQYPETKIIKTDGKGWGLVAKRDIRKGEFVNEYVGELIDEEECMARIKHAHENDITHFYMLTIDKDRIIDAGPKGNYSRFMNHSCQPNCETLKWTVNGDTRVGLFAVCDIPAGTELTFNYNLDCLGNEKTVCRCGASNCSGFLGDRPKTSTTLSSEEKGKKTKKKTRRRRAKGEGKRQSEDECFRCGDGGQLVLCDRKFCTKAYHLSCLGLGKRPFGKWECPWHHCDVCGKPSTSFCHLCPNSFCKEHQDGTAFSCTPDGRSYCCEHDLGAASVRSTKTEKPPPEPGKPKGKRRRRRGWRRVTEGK

[22] = molecular target: Nonstructural protein 1 (Influenza A virus, UniProt Q194T2); type: functional, Influenza A virus (A/California/07/2009(H1N1))
[23] = cytotoxicity in NIH3T3 fibroblasts, dose response, cytotoxicity control for HSP40 inhibitor project, cell-based, CellTiter-Glo luminescence, cherry-pick, set 2 (AID 624265); type: functional
[24] = molecular target: Melanocortin receptor 4 (Homo sapiens, UniProt P32245); type: functional, cell-based;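 also: Cell-based assay with luminescence read-out, confirmatory dose-response testing for agonist activity of biased ligands at MC4R; human U2OS cells with tagged receptor and beta-arrestin; potency of agonists that increase receptor coupling to beta-arrestin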
[25] = molecular target: T6, Protein disulfide-isomerase (Homo sapiens, UniProt P07237); assay: PDI inhibitors, insulin turbidity readout, dose response, biochemical, absorbance, cherry-picked samples, set 2 (AID 624274); type: functional
[26] = molecular target: T6, Protein disulfide-isomerase; assay: PDI inhibitors, insulin aggregation turbidity, dose response, biochemical, absorbance, cherry-picked samples (AID 602350); type: functional
[27] = molecular target: T7, ATP-dependent translocase ABCB1 (Homo sapiens, UniProt P08183); assay: ABCB1 efflux inhibitor potency, dose response, Jurkat-DNR cells, JC-1, flow cytometry, set 2 (AID 504569); type: functional; conditions: read-out: EC50_MICROM_;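 also: potency of pump inhibitors that raise cellular JC-1 green fluorescence up to the nicardipine level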
[28] = molecular target: T7, ATP-dependent translocase ABCB1; assay: ABCG2 efflux pump inhibitor potency, dose response, Ig-MXP3 cells, JC-1, flow cytometry, set 2 (AID 504566); type: functional; conditions: read-out: EC50_MICROM_;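 also: flow cytometry median green fluorescence of retained JC-1 dye; potency of efflux pump inhibition measured as rising substrate retention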
[29] = molecular target: Aryl hydrocarbon receptor (Homo sapiens, UniProt P35869); conditions: Potency;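 also: confirmatory quantitative high-throughput screen measuring activation of the AhR signaling pathway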
[30] = molecular target: Mitochondrial peptide methionine sulfoxide reductase (Bos taurus, UniProt P54149); type: functional;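 also: absorbance read-out, biochemical high-throughput dose-response screen for MsrA inhibitors, confirmatory; recombinant bovine MsrA coupled to E. coli TrxB with NADPH and selenocystamine; potency is for inhibitors of MsrA activity on DMSO substrate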
Sequence of Mitochondrial peptide methionine sulfoxide reductase (P54149 whole entry): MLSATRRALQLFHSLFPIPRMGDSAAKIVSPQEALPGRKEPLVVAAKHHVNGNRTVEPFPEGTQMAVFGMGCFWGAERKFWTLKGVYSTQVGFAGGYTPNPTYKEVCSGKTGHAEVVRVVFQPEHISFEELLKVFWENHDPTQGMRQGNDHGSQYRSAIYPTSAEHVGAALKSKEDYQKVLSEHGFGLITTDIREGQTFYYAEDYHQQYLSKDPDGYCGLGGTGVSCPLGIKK

T2 sequence (Q9HC16 whole entry): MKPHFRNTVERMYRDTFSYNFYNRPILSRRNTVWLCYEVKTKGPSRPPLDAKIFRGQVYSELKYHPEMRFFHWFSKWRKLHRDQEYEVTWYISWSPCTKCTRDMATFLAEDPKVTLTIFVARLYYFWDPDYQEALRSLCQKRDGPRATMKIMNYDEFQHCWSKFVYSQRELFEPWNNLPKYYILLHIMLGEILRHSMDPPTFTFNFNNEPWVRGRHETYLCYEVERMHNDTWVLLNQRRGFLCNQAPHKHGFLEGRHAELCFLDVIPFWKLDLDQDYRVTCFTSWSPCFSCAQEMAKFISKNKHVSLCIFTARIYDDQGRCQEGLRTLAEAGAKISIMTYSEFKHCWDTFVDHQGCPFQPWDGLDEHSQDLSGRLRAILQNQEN
T1 sequence (P31941 whole entry): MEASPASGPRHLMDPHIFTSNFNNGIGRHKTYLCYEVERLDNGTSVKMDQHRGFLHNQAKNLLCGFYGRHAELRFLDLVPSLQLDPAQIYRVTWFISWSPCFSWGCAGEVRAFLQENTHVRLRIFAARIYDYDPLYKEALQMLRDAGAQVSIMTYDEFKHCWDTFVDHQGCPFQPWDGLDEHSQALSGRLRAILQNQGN
T6 sequence (P07237 whole entry): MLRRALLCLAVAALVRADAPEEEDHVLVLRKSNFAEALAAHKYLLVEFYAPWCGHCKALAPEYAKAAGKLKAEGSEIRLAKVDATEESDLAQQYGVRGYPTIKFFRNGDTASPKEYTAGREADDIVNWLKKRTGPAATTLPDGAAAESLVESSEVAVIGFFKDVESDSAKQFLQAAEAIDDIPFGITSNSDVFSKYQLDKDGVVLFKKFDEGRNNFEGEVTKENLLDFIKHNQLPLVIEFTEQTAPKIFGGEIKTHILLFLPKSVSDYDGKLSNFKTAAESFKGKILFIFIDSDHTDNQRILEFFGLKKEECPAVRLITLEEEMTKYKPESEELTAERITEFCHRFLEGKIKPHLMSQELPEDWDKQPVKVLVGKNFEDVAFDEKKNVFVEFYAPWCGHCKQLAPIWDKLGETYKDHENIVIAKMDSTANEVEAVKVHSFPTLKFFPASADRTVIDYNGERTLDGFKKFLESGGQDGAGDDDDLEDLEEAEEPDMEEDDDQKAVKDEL
T7 sequence (P08183 whole entry): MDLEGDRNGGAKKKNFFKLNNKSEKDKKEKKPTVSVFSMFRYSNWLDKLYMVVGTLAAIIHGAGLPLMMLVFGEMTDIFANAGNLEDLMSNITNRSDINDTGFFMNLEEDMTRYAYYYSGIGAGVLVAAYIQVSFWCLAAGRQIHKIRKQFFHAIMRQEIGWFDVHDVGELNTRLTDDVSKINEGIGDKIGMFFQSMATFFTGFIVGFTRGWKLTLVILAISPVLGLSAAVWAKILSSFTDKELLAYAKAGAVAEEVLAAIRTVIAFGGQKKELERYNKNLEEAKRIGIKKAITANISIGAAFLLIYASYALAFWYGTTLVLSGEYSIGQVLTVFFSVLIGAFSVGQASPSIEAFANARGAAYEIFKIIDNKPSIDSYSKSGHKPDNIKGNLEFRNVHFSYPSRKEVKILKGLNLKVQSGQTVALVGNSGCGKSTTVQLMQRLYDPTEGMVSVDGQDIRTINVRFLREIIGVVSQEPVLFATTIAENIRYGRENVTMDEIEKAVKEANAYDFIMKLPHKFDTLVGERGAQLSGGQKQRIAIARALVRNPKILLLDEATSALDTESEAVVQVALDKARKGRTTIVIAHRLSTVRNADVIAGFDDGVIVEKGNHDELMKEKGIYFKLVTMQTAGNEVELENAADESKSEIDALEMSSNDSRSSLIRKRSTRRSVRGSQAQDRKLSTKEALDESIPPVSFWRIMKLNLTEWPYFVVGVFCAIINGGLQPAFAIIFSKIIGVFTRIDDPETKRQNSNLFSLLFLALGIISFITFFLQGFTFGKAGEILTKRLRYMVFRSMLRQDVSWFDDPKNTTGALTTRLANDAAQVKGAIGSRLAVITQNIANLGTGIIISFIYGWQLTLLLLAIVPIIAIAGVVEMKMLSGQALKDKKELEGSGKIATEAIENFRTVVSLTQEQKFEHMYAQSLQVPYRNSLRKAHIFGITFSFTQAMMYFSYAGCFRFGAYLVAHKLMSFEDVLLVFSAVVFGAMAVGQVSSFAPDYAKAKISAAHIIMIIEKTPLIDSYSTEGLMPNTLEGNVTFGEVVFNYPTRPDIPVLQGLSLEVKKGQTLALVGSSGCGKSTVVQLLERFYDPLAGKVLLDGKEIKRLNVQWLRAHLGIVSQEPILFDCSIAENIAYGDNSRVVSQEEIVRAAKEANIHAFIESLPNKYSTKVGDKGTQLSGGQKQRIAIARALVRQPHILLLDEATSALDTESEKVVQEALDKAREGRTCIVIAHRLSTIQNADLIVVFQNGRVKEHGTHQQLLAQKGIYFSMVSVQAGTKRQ
T3 sequence (P63165 whole entry): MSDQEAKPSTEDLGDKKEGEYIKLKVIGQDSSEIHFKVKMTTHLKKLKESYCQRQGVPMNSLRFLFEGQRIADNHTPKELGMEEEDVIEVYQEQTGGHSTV
Sequence of Aryl hydrocarbon receptor (P35869 whole entry): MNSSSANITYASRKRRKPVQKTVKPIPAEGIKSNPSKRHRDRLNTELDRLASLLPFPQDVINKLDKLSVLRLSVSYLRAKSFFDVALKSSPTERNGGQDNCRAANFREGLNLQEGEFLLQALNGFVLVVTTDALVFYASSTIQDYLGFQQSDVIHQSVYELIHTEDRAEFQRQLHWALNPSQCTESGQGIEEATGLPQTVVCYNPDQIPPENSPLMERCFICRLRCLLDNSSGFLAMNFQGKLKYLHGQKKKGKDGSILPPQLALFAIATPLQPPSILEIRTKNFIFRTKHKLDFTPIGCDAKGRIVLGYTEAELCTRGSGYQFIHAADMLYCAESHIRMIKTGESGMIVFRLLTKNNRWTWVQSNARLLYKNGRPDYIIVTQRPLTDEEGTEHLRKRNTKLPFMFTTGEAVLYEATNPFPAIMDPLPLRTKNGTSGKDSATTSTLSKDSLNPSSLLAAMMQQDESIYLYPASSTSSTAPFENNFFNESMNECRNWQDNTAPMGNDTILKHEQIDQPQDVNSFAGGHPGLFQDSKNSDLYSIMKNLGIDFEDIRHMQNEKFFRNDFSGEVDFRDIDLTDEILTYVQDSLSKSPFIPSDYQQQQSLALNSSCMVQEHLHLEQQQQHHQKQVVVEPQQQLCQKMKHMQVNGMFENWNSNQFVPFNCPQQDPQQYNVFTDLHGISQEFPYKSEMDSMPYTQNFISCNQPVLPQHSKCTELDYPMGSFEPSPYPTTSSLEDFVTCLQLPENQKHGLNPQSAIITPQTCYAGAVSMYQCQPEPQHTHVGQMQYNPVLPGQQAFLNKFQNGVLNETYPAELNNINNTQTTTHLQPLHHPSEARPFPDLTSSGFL
Sequence of ADP-ribosylation factor GTPase-activating protein 1 (Q62848 whole entry): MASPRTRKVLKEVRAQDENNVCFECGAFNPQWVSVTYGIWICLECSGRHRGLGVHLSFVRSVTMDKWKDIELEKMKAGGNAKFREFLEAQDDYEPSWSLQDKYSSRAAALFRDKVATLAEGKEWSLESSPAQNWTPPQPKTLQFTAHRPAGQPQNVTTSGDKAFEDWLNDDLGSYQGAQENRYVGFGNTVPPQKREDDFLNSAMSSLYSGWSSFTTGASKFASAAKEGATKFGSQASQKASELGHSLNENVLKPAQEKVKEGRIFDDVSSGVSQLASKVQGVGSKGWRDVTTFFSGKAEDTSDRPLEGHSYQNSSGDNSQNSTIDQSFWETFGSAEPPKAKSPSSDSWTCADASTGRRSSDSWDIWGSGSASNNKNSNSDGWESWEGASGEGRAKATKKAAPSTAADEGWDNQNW
Sequence of Neurotensin receptor type 1 (P30989 whole entry): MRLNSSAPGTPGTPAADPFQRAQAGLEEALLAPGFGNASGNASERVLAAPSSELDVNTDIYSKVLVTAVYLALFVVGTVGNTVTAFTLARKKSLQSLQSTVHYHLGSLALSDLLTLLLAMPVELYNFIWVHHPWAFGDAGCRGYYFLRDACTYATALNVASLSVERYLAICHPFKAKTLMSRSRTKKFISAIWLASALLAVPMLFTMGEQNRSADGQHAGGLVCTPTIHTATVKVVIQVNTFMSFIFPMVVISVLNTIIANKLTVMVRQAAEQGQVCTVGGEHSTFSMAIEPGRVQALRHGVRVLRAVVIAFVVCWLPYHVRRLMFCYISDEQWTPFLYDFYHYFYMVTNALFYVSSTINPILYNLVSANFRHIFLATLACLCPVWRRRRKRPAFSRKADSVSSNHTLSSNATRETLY
Sequence of Steroidogenic factor 1 (Q13285 whole entry): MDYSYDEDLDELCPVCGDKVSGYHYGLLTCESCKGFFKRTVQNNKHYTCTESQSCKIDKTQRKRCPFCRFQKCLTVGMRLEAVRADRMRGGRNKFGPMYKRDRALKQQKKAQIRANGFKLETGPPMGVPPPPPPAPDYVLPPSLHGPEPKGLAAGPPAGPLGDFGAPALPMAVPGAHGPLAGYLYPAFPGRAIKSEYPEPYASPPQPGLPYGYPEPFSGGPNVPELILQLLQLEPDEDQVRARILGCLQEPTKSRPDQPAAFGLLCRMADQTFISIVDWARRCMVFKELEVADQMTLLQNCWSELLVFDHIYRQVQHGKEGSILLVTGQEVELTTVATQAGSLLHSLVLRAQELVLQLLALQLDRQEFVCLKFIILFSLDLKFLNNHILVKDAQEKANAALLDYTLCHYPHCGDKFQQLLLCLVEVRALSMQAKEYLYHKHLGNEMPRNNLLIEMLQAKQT

With Cc1ccc[n+](CC(=O)Nc2cc(C(F)(F)F)ccc2N2CCOCC2)c1 the IC50 [1] was 26.6 µM (inactive), the IC50 [2] was 7.42 µM (active) and the IC50 [3] was 2.88 µM (active). The IC50 [4] was 9.17 µM (active), the IC50 [5] was 0.601 µM (active) and the IC50 [6] was 20.3 µM (inactive).

For COc1ccc(-n2c(SCC(N)=O)nc3sc4c(c3c2=O)CCN(C)C4)cc1, the IC50 [7] was 111 µM (inactive).

With Brc1ccc(-c2nn3c(-c4ccccn4)nnc3s2)o1 the IC50 [8] was 14.8 µM (active) and the AC50 [9] was 104 µM (active).

With CCOC(=O)c1c(NC(C)=O)sc2c(OCC(O)CN(CC)CC)c(Br)ccc12 (stereo not given) the AC50 [10] was 24.6 µM (active), the EC50 [11] was 22.6 µM (inactive) and the AC50 [12] was 8.3 µM (active).

In the case of O=C(/C=C/c1ccc(Br)cc1)NC(=S)Nc1ccc(S(=O)(=O)Nc2nccs2)cc1, the IC50 [13] is reported as 5.22 µM (active), the IC50 [14] is reported as > 66.6 µM (inactive) and the IC50 [15] is reported as 17.3 µM (active). The IC50 [16] was 3.39 µM (active).

With N=C(NNS(=O)(=O)c1cc(C(F)(F)F)cc(C(F)(F)F)c1)c1ccccn1 the AC50 [17] was 104 µM (active).

For CCOc1ccc(NC(=O)CN2CCN(CC(=O)Nc3ccc(OC)cc3)CC2)cc1, the IC50 [18] was 18.1 µM (inactive), the IC50 [19] was 35.9 µM (inactive) and the IC50 [20] was 3.07 µM (active).

For O=C1c2cccc(Cl)c2C(=O)c2c1cccc2N1CCCC1, the AC50 [21] was 2.51 µM (active), the IC50 [22] was 8.7 µM (active) and the AbsAC35_uM [23] was 61.52 µM.

For COc1ccccc1-c1cc(NC=O)c2ncc(-c3cccc(C(F)(F)F)c3)n2c1, the EC50 [24] was > 89.2 µM (inactive).

In the case of COc1cccc(/C=N/NC(=O)CNC(=O)c2ccc3c(c2)OCCO3)c1O, the AC50 [25] is reported as 0.009 µM (active) and the AC50 [26] is reported as < 0.009 µM (active).

In the case of COc1ccc(-c2cc3nc(-c4ccccc4)cc(N4CCN(C(=O)c5ccsc5)CC4)n3n2)cc1, the EC50 [27] is reported as 1.02 µM (active) and the EC50 [28] is reported as 0.77 µM (active).

With O=C(O)c1cc2ccccc2cc1O the AC50 [29] was 50.1 µM (inconclusive).

With CCOC(=O)CC(C)(C)/C(C)=N/Nc1ccc([N+](=O)[O-])cc1[N+](=O)[O-] the IC50 [30] was 155 µM (inactive).
